Data on one compound can be found in paper PMC5969508, “Stapled peptides as a new technology to investigate protein–protein interactions in human platelets” (Chemical Science, 2018).

The assay deals with T1, Bcl-xL (Homo sapiens, UniProt Q07817).
T1 construct: made in house; host or cells: Escherichia coli BL21 Gold DE3
Kind of assay: Surface plasmon resonance (SPR) direct binding to Bcl-xL. The settings on record: 25 °C.

Like-named read-outs stand apart in the source and are kept apart here.

T1 sequence (Q07817 whole entry): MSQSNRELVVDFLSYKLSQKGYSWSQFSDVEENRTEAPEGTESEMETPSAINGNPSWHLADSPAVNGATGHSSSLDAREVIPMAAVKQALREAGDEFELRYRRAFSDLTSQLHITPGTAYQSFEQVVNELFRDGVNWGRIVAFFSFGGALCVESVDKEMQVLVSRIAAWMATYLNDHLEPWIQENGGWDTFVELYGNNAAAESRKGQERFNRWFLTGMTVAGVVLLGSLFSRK
From the text: 1.9 Surface Plasmon Resonance (SPR)
The present method utilizes a Surface plasmon resonance (SPR)-based biosensor (BiacoreTM, GE Healthcare,
Uppsala, Sweden) to characterize Bcl-xL peptide interaction partners.
The SPR assay is configured to examine direct binding of peptide s to Bcl-xL derivatized sensor surfaces and
generate relative affinity values (KDapp) to provide relative ranking data for the series of peptides under
BiacoreTM T200 (GE Healthcare, Uppsala, Sweden) was used to conduct all experiments reported herein. Sensor
surface preparation and all interaction analyses experiments were performed at 25 °C utilizing a data collection
rate of 10 Hz. Reagents were purchased from GE Healthcare. Running buffer containing 10 mM Hepes, pH 7.4,
150 mM sodium chloride, 1 mM dithiothreitol, 1% DMSO and 0.05% polysorbate 20 were utilized throughout
surface preparation and all interaction analysis experiments.
Histidine tagged Bcl-xL protein was diluted to 5 μg/mL and captured onto Sensor chip NTA via the following
sequence of injections to achieve a target Bcl-xL surface density of 700 R.U. (response units). The carboxymethyl
dextran surface of Sensor chip NTA was activated by injection of an aqueous solution containing 50 mM N-hydroxy
succinimide (NHS) and 200 mM N-ethyl-N’-(dimethylaminopropyl) carbodiimide (EDC). 500 μM nickel sulfate (NiSO4)
was subsequently injected for one minute and utilized to capture Bcl-xL from a 5 μg/mL solution injected for one
minute. A further one-minute injection of 1M ethanolamine, pH 8.5 was performed to deactivate any unreacted
carboxymethylesters.3 The flow-rate for all injections during surface derivatization was 10 µl/min.

Regarding `CC[C@H](C)[C@H](NC(C)=O)C(=O)N[C@@H](Cc1c[nH]c2ccccc12)C(=O)N[C@H](C(=O)N[C@@H](C)C(=O)N[C@@H](CCC(N)=O)C(=O)N[C@@H](CCC(=O)O)C(=O)N[C@@H](CC(C)C)C(=O)N[C@@H](CCCNC(=N)N)C(=O)N[C@H]1CCCn2cc(nn2)-c2cc(C(=O)N[C@@H](CCCNC(=N)N)C(=O)N[C@@H](CCCNC(=N)N)C(=O)N[C@@H](CCCNC(=N)N)C(N)=O)cc(c2)-c2cn(nn2)CCC[C@@H](C(=O)N[C@@H](Cc2ccccc2)C(=O)N[C@@H](CC(N)=O)C(=O)N[C@@H](C)C(=O)N[C@@H](Cc2ccc(O)cc2)C(=O)N[C@@H](Cc2ccc(O)cc2)C(=O)N[C@@H](C)C(=O)N[C@@H](CCCNC(=N)N)C(=O)N[C@@H](CCCNC(=N)N)C(N)=O)NC(=O)[C@H](CC(=O)O)NC(=O)CNC(=O)[C@H]([C@@H](C)CC)NC1=O)[C@@H](C)CC` [peptide 19], the Kd (SPR Biacore T200, His-tagged Bcl-xL on Sensor chip NTA, 7-point 2-fold dilution 33.3 nM to 1.03 nM, steady state fit, Table S1, read-out: Rel. Kdapp) is 26.2 nM and the Kd (SPR, His-tagged Bcl-xL captured on Sensor chip NTA, steady state affinity, as quoted in main text, read-out: relative KDapp) worked out at 26 nM.
